Data taken from US20230285402A1, “Compositions and Methods of Modulating Short-Chain Dehydrogenase Activity” (BOARD OF REGENTS OF THE UNIVERSITY OF TEXAS SYSTEM, priority 2013, published 2023).

Columns and labels:
[1] = system: 15-PGDH-luciferase fusion reporter in V9m, LS174T and V503 cells; assay: 15-PGDH-luciferase fusion reporter induction in colon cancer cell lines; format: cell-based; conditions: V9m, LS174T, V503
[2] = system: 15-PGDH mRNA; assay: 15-PGDH mRNA by real-time PCR in colon cancer cell lines; format: cell-based
Text: In these studies parental cell lines (not containing the 15-PGDH-luciferase reporter) are employed.

[3] = system: A549 cells; assay: PGE2 in medium of IL1-beta stimulated A549 cells; format: cell-based
[4] = system: A549 cells; assay: Cellular toxicity by CellTiter-Glo; format: cell-based; conditions: concentrations of up to 10 μM; 24 hours
Experimental: FIGS. 38(A-C) show assays of cellular toxicity on A549 cells at 24 hours of 15-PGDH inhibitors as assayed by CellTiter-Glo measurement.

[5] = system: bone marrow; assay: Hematopoietic colonies from wild-type mouse bone marrow treated ex vivo; format: cell-based; conditions: 0.5 μM, ex vivo on ice 2 hours
Text: Treated marrow is again then plated into methylcellulose for counting of hematopoietic colonies.

[6] = system: C57BL/6J mice; assay: Bone marrow of C57BL/6J mice treated IP; format: in vivo, mouse; conditions: 5 mg/kg or 20 mg/kg IP
Text: Experimental conditions are noted on the figure.

[7] = system: C57BL/6J mice; assay: Survival of 11Gy irradiated C57BL/6J mice given marrow allograft, SW033291 5 mg/kg IP bid for 21 days, 3 mice per condition; format: in vivo, mouse
Text: The experimental design is depicted in FIG. 50.
Under the conditions of the mouse colony during this study, control mice receiving 100,000-500,000 cells are all dead between days 4-13 of study. […] Such activity would be of particular utility in settings, such as transplantation with umbilical cord stem cells, in which donor cell numbers are limited.

[8] = system: C57BL/6J mice; assay: Liver regeneration after partial hepatectomy, C57BL/6J mice, SW033291 5 mg/kg IP; format: in vivo; conditions: 5 mg/kg IP bid; one mouse each
[9] = system: FVB mice; assay: Liver regeneration after partial hepatectomy, FVB mice, SW033291 5 mg/kg IP bid; format: in vivo, mouse
[10] = system: C57BL/6J female mice; assay: Survival after acetaminophen (Tylenol) 600 mg/kg IP (LD50), C57BL/6J female mice, SW033291 5 mg/kg IP; format: in vivo, mouse; conditions: for number of mice surviving: first dose immediately after Tylenol
[11] = system: FVB male mice; assay: Dextran sodium sulfate (DSS) induced colitis, FVB male mice, SW033291 5 mg/kg IP twice daily; format: in vivo, mouse
[12] = system: mice; assay: Bone marrow transplant after 11Gy, SW033291 5 mg/kg IP twice daily: survival and blood/marrow counts; format: in vivo, mouse
[13] = system: NSG mice; assay: Homing of CFSE labeled human umbilical cord blood buffy coat cells in NSG mice; conditions: in vivo
Experimental: FIG. 93 illustrates a schema of an experiment in which immune deficient NSG mice are lethally irradiated (IR) and 12 hours later receive a transplant with CFSE dye labeled buffy coat cells from human umbilical cord blood (UCB), and number of transplanted cells that home and survive in the bone marrow of the recipient mice are then determined by FACS at 16 hours post-transplant. In different arms of the experiment mice are treated with vehicle or with SW033291. Drugs are administered following radiation, following the transplant, and again at 8 hours after the transplant.

[14] = day 5 after transplant, 500,000 donor cells

## CCCC[S+]([O-])c1sc2nc(-c3cccs3)cc(-c3ccccc3)c2c1N (stereo not drawn) [SW033291, 2-(butylsulfinyl)-4-phenyl-6-(thiophen-2-yl)thieno[2,3-b]pyridin-3-amine]
[1]
  luciferase activity, in words: increase luciferase activity
[2]; V503 cells
  15-PGDH mRNA: slight increase in 15-PGDH mRNA
[2]; treated colon cancer cell lines
  15-PGDH mRNA levels: do not in general alter 15-PGDH mRNA levels
[3]; 100 nM drug
  rank of PGE2 level in medium: next highest level of PGE2
[3]; IL1-beta 23 hours, compound for last 5 hours
  15-PGDH activity in cells as reflected in PGE2 levels: clear inhibition of 15-PGDH activity
[3]; IL-1β 16 h, then compound 8 h
  highest PGE2 level in medium: 3000 pg/mL
[4]
  effect on CellTitre-Glo levels: No effect
[5]
  increase in number of bone marrow derived colonies: approximately 50%
[6]
  increase in numbers of hematopoietic colonies: approximately 30%
  percent of Sca1+/c-Kit+ cells in lineage negative (SKL) cells: unchanged
[7]; Day 0, 1 × 10^5 cells
  Mouse survival (number surviving): 3
[7]; Day 0, 2 × 10^5 cells
  Mouse survival (number surviving): 3
[7]; Day 0, 5 × 10^5 cells
  Mouse survival (number surviving): 3
[7]; Day 1, 1 × 10^5 cells
  Mouse survival (number surviving): 3
[7]; Day 1, 2 × 10^5 cells
  Mouse survival (number surviving): 3
[7]; Day 1, 5 × 10^5 cells
  Mouse survival (number surviving): 3
[7]; Day 2, 1 × 10^5 cells
  Mouse survival (number surviving): 3
[7]; Day 2, 2 × 10^5 cells
  Mouse survival (number surviving): 3
[7]; Day 2, 5 × 10^5 cells
  Mouse survival (number surviving): 3
[7]; Day 3, 1 × 10^5 cells
  Mouse survival (number surviving): 3
[7]; Day 3, 2 × 10^5 cells
  Mouse survival (number surviving): 3
[7]; Day 3, 5 × 10^5 cells
  Mouse survival (number surviving): 3
[7]; Day 4, 1 × 10^5 cells
  Mouse survival (number surviving): 2
[7]; Day 4, 2 × 10^5 cells
  Mouse survival (number surviving): 3
[7]; Day 4, 5 × 10^5 cells
  Mouse survival (number surviving): 3
[7]; Day 5, 1 × 10^5 cells
  Mouse survival (number surviving): 1
[7]; Day 5, 2 × 10^5 cells
  Mouse survival (number surviving): 3
[7]; Day 5, 5 × 10^5 cells
  Mouse survival (number surviving): 3
[7]; Day 6, 1 × 10^5 cells
  Mouse survival (number surviving): 0
[7]; Day 6, 2 × 10^5 cells
  Mouse survival (number surviving): 2
[7]; Day 6, 5 × 10^5 cells
  Mouse survival (number surviving): 3
[7]; Day 7, 2 × 10^5 cells
  Mouse survival (number surviving): 2
[7]; Day 7, 5 × 10^5 cells
  Mouse survival (number surviving): 3
[7]; Day 8, 2 × 10^5 cells
  Mouse survival (number surviving): 2
[7]; Day 8, 5 × 10^5 cells
  Mouse survival (number surviving): 2
[7]; Day 9, 2 × 10^5 cells
  Mouse survival (number surviving): 2
[7]; Day 9, 5 × 10^5 cells
  Mouse survival (number surviving): 2
[7]; Day 10, 2 × 10^5 cells
  Mouse survival (number surviving): 2
[7]; Day 10, 5 × 10^5 cells
  Mouse survival (number surviving): 2
[7]; Day 11, 2 × 10^5 cells
  Mouse survival (number surviving): 2
[7]; Day 11, 5 × 10^5 cells
  Mouse survival (number surviving): 2
[7]; Day 12, 2 × 10^5 cells
  Mouse survival (number surviving): 1
[7]; Day 12, 5 × 10^5 cells
  Mouse survival (number surviving): 2
[7]; Day 13, 2 × 10^5 cells
  Mouse survival (number surviving): 0
[7]; Day 13, 5 × 10^5 cells
  Mouse survival (number surviving): 2
[8]
  serum ALT values vs control: lower
[9]; post-operative day 2
  increase in median S-phase (BrdU positive) cells: greater than 2 fold
[9]; post-operative day 7, dosing from 1 hour before surgery
  greater liver weight than control: approximately 25%
[10]; 0 hrs, 1 dose/daily, cohort of 6
  number of mice surviving: 6
[10]; 0 hrs, 2 dose/daily, cohort of 6
  number of mice surviving: 6
[10]; 0 hrs, bid from 3 hours prior to acetaminophen, 6 doses, cohort of 6
  Survival (number of mice): 6
[10]; 0 hrs, bid from 48 hours prior to acetaminophen, 9 doses, cohort of 12
  Survival (number of mice): 12
[10]; 16 hr, 1 dose/daily, cohort of 6
  number of mice surviving: 6
[10]; 16 hr, 2 dose/daily, cohort of 6
  number of mice surviving: 6
[10]; 16 hr, bid from 3 hours prior to acetaminophen, 6 doses, cohort of 6
  Survival (number of mice): 6
[10]; 16 hr, bid from 48 hours prior to acetaminophen, 9 doses, cohort of 12
  Survival (number of mice): 12
[10]; 24 hrs, 1 dose/daily, cohort of 6
  number of mice surviving: 6
[10]; 24 hrs, 2 dose/daily, cohort of 6
  number of mice surviving: 6
[10]; 24 hrs, bid from 3 hours prior to acetaminophen, 6 doses, cohort of 6
  Survival (number of mice): 5
[10]; 24 hrs, bid from 48 hours prior to acetaminophen, 9 doses, cohort of 12
  Survival (number of mice): 12
[10]; 40 hrs, bid from 48 hours prior to acetaminophen, 9 doses, cohort of 12
  Survival (number of mice): 11
[10]; 48 hrs, 2 dose/daily, cohort of 6
  number of mice surviving: 3
[10]; 48 hrs, bid from 3 hours prior to acetaminophen, 6 doses, cohort of 6
  Survival (number of mice): 3
[10]; 48 hrs, bid from 48 hours prior to acetaminophen, 9 doses, cohort of 12
  Survival (number of mice): 10
[10]; 64 hrs, 2 dose/daily, cohort of 6
  number of mice surviving: 3
[10]; 64 hrs, bid from 3 hours prior to acetaminophen, 6 doses, cohort of 6
  Survival (number of mice): 3
[10]; 64 hrs, bid from 48 hours prior to acetaminophen, 9 doses, cohort of 12
  Survival (number of mice): 10
[10]; 72 hrs, 2 dose/daily, cohort of 6
  number of mice surviving: 3
[10]; 72 hrs, bid from 3 hours prior to acetaminophen, 6 doses, cohort of 6
  Survival (number of mice): 3
[10]; 72 hrs, bid from 48 hours prior to acetaminophen, 9 doses, cohort of 12
  Survival (number of mice): 10
[10]; 88 hr, 2 dose/daily, cohort of 6
  number of mice surviving: 3
[10]; 88 hr, bid from 3 hours prior to acetaminophen, 6 doses, cohort of 6
  Survival (number of mice): 3
[10]; 88 hr, bid from 48 hours prior to acetaminophen, 9 doses, cohort of 12
  Survival (number of mice): 10
[10]; 96 hr, 2 dose/daily, cohort of 6
  number of mice surviving: 3
[10]; 96 hr, bid from 3 hours prior to acetaminophen, 6 doses, cohort of 6
  Survival (number of mice): 3
[10]; 96 hr, bid from 48 hours prior to acetaminophen, 9 doses, cohort of 12
  Survival (number of mice): 10
[10]; 112 hr, 2 dose/daily, cohort of 6
  number of mice surviving: 3
[10]; 112 hr, bid from 3 hours prior to acetaminophen, 6 doses, cohort of 6
  Survival (number of mice): 3
[10]; 112 hr, bid from 48 hours prior to acetaminophen, 9 doses, cohort of 12
  Survival (number of mice): 10
[10]; 120 hr, 2 dose/daily, cohort of 6
  number of mice surviving: 3
[10]; 120 hr, bid from 3 hours prior to acetaminophen, 6 doses, cohort of 6
  Survival (number of mice): 3
[10]; 120 hr, bid from 48 hours prior to acetaminophen, 9 doses, cohort of 12
  Survival (number of mice): 10
[10]; dosing begun immediately following acetaminophen, once or twice daily, 0-120 hours
  survival vs control mice: No difference
[11]; 22 days of study
  change from baseline weight vs control: greater weight at all time points
[11]; Baseline
  Colon length: 8.4 ± 0.2 cm
  Wt @ sacrifice: 25.9 ± 0.7 gm
[11]; Day 8
  Colon length: 6.6 ± 0.1 cm
  Wt @ sacrifice: 26.4 ± 0.5 gm
[11]; Day 15
  Colon length: 7.5 ± 0.1 cm
  Wt @ sacrifice: 25.2 ± 0.9 gm
[11]; Day 22
  Colon length: 8.6 ± 0.3 cm
  Wt @ sacrifice: 28.2 ± 0.5 gm
[11]; colonoscopy days 8, 11 and 15
  share of ulcer formation prevented: two-thirds
[11]; day 15
  reduction of length of ulcerated mucosa vs control: 61%
[11]; day 15, N=6 mice, control 4.48
  average length of ulcerated mucosa: 1.74 mm per colon section
[11]; days 8, 11 and 15
  MEICS score vs control: significantly less colitis activity
[12]; 100,000 donor cells
  median survival vs control: approximate doubling of median survival
[12]; 200,000 donor cells
  survival at 30 days: all mice receiving 200,000 donor cells plus SW033291 survived
[12]; 500,000 donor cells
  survival at 30 days: all survived
[12]; [14]
  total platelet count vs control: significantly higher total platelet count
  total white count vs control: significantly higher total white count
[12]; day 8 after transplant, control 39,500
  platelet count: 77,000
[12]; day 12 after transplant
  total white counts vs control: significantly greater total white counts
[12]; day 12 after transplant, control 8.3
  hemoglobin level: 11.58
[12]; day 12 after transplant, control 125
  neutrophil count: 332
[12]; day 18 after transplant
  lymphocyte count vs control: significantly higher
  platelet counts vs control: significantly higher platelet counts
  total white count vs control: significantly higher total white count
[12]; day 18 after transplant, control 365
  neutrophil count: 835
[12]; day 18 after transplant, control 967
  mean SKL marked bone marrow cells: 4127
[13]
  increase of homed human cells in recipient mouse bone marrow: ~2 fold
